test system: interferon-stimulated gene signature; assay: Interferon-stimulated gene signature expression (qPCR); format: cell-based, human; conditions: relevant cell types
Method: Wild-type and STING KO THP-1 cells were stimulated with poly(dA:dT), a known activator of both RIG-I and cGAS-dependent signaling cascades, and downstream target gene expression was assessed 48 h later by qPCR (A). Wild-type and STING KO THP-1 cells were stimulated with 2′3′-cGAMP or Cmpd 164 at the indicated doses and activation of type I interferon signaling was assessed by gene expression analysis of IFNB1 (B) and interferon stimulated genes, IFIT3 (C) and CXCL10 (D).
We have established a robust platform for identifying non-nucleotide small molecule STING agonists. This has been established using a primary assay involving a human THP-1 cell line carrying an IRF-inducible reporter with 5 copies of the IFN signaling response element. Counter screens, involving alternative reporter constructs, rodent cell-based assays, as well as cGAS and STING knock-out cell lines, are used to eliminate luciferase artifacts and ensure human-rodent cross species reactivity, as well as pathway selectivity. […]
THP-1 cells were resuspended in low-serum growth media at a density of 5×10^5 cells/ml and treated with test article or vehicle (DMSO). […] Gene expression was assessed using Taqman primers and probes listed in Table 4 with the Taqman Universal Mix II (cat. no. 4440038, ThermoFisher) following manufacturer's instructions. […]

SMILES | interferon-stimulated gene signature expression
O=C(Nc1ccc(Br)cc1C(O)(C(F)(F)F)C(F)(F)F)c1ccc(-n2ccnc2)nn1 [Compound 164] | induces interferon-stimulated gene signature expression

test system: STING knockout cells; assay: ISRE-Luciferase reporter activity in STING knockout THP-1 cells (counter screen); format: cell-based, human; conditions: not given
Method: Wild-type and STING KO THP-1 ISRE-Luciferase reporter cells were treated with increasing doses of 2′3′-cGAMP and reporter activity (luminescence) was assessed 48 h after treatment (A). Lack of STING protein expression was confirmed in STING KO THP-1 cells by western blot with gamma-tubulin used as a protein loading control (B). Wild-type and STING KO THP-1 reporter cells were treated with increasing doses of Compound 164 (Cmpd 164) and reporter activity and cell viability were assessed 24 h after treatment (C-D).
We have established a robust platform for identifying non-nucleotide small molecule STING agonists. This has been established using a primary assay involving a human THP-1 cell line carrying an IRF-inducible reporter with 5 copies of the IFN signaling response element. […]
THP-1 Lucia ISG cells were resuspended in low-serum growth media (2% FBS) at a density of 5×10^5 cells/ml and treated with test article or vehicle (DMSO). […] To evaluate expression of the luciferase reporter, 30 μl of Quanti-luc (Invivogen) detection reagent was added to each well and luminescence was read using an Envision plate reader (Perkin Elmer) set with an integration time of 0.1 seconds.

SMILES | activity in STING knockout cells
O=C(Nc1ccc(Br)cc1C(O)(C(F)(F)F)C(F)(F)F)c1ccc(-n2ccnc2)nn1 [Compound 164] | lack of activity

test system: human PBMCs; assay: Type I IFN protein expression in human PBMCs; format: cell-based; conditions: compared with 2′-3′ cGAMP

SMILES | type I IFN protein expression, efficacy
O=C(Nc1ccc(Br)cc1C(O)(C(F)(F)F)C(F)(F)F)c1ccc(-n2ccnc2)nn1 [Compound 164] | comparable to that observed for 2′-3′ cGAMP

test system: cGAS knockout cells; assay: Activity in wild-type and cGAS knockout cells (counter screen); format: cell-based; conditions: not given
Source text: We have established a robust platform for identifying non-nucleotide small molecule STING agonists. This has been established using a primary assay involving a human THP-1 cell line carrying an IRF-inducible reporter with 5 copies of the IFN signaling response element. Counter screens, involving alternative reporter constructs, rodent cell-based assays, as well as cGAS and STING knock-out cell lines, are used to eliminate luciferase artifacts and ensure human-rodent cross species reactivity, as well as pathway selectivity. Biochemical assays, involving cGAS enzymatic activity and STING protein binding assays, are used to identify the specific target of identified hits. […] Further evidence is provided by STING protein thermal shift data. A preliminary medicinal chemistry effort, involving the design, synthesis, and testing of ˜100 analogs within the series, has identified key features of the molecule that are required for activity and has led to the identification of derivatives with ˜10-fold improvements in cell-based potency (by for example modulating the substitution pattern on the aniline ring) and ˜50-fold improvement in plasma stability (by modulating the size of the substituent of the ester).

SMILES | activity in wild-type and cGAS knockout cells
O=C(Nc1ccc(Br)cc1C(O)(C(F)(F)F)C(F)(F)F)c1ccc(-n2ccnc2)nn1 [Compound 164] | observed activity

biological target: T1, STING (Stimulator of Interferon Genes) (Homo sapiens, UniProt Q86WV6, G230A/H232R/R293Q/R71H); assay: ISG-LUC activation assay (ISRE-Luciferase assay in THP-1 Lucia ISG reporter cells); format: cell-based; conditions: THP-1 Lucia ISG cells, 24 hours, luciferase reporter; read-out: ISG-LUC activation assay (EC50)
T1 construct: host or cells: THP-1-Lucia ISG cells (human monocytic line)
T1 sequence (Q86WV6 whole entry R71H/G230A/H232R/R293Q): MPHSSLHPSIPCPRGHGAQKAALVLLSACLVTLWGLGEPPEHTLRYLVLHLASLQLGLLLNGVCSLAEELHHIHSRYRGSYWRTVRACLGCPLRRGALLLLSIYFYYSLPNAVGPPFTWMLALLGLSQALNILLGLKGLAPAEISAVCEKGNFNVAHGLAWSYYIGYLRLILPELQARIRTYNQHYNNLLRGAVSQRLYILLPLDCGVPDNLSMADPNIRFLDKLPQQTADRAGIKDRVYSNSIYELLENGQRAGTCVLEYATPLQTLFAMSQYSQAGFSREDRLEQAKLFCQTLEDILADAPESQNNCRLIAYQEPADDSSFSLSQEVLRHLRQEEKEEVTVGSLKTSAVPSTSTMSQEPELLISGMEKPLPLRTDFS
Source text: This has been established using a primary assay involving a human THP-1 cell line carrying an IRF-inducible reporter with 5 copies of the IFN signaling response element. Counter screens, involving alternative reporter constructs, rodent cell-based assays, as well as cGAS and STING knock-out cell lines, are used to eliminate luciferase artifacts and ensure human-rodent cross species reactivity, as well as pathway selectivity. Biochemical assays, involving cGAS enzymatic activity and STING protein binding assays, are used to identify the specific target of identified hits.
THP-1 Lucia ISG cells were resuspended in low-serum growth media (2% FBS) at a density of 5×10^5 cells/ml and treated with test article or vehicle (DMSO). 50 μL of cells were seeded into each well of a 384-well white greiner plates and incubated for 24 hours. To evaluate expression of the luciferase reporter, 30 μl of Quanti-luc (Invivogen) detection reagent was added to each well and luminescence was read using an Envision plate reader (Perkin Elmer) set with an integration time of 0.1 seconds.

SMILES | EC50
COC(=O)c1cc(F)c(C)nc1NC(=O)c1ccc(-n2ccnc2)nn1 [Compound 149] | 30.1 µM
O=C(Nc1cc(F)c(F)cc1C(=O)NO)c1ccc(-n2ccnc2)nn1 [Compound 150] | 12.2 µM
COc1ccc(NC(=O)c2ccc(-n3ccnc3)nn2)c(C(=O)O)c1 [Compound 151] | 7.76 µM
COC(=O)c1ncc(C(F)(F)F)cc1NC(=O)c1ccc(-n2ccnc2)nn1 [Compound 152] | ~1.27 µM
CCOC(=O)c1nc2ccccc2cc1NC(=O)c1ccc(-n2ccnc2)nn1 [Compound 153] | 0.043 µM
O=C(Nc1cc2ccccc2nc1C(=O)O)c1ccc(-n2ccnc2)nn1 [Compound 154] | ~10.4 µM
CCOC(=O)C1=C(NC(=O)c2ccc(-n3ccnc3)nn2)C2CCC1O2 (stereo not shown) [Compound 155] | > 50 µM
COC(=O)c1cccc(F)c1NC(=O)c1ccc(-n2ccnc2)nn1 [Compound 156] | > 50 µM
O=C(Nc1cc(Cl)nnc1C(=O)O)c1ccc(-n2ccnc2)nn1 [Compound 157] | > 50 µM
O=C(Nc1ccc(F)cc1C(=O)O)c1ccc(-n2ccnc2)nn1 [Compound 158] | > 20 µM
COC(=O)c1ccc(C(=O)OC)c(NC(=O)c2ccc(-n3ccnc3)nn2)c1 [Compound 159] | > 20 µM
COC(=O)c1cc(C(C)C)ccc1NC(=O)c1ccc(-n2ccnc2)nn1 [Compound 160] | 3.84 µM
O=c1oc(-c2ccc(-n3ccnc3)nn2)nc2ccc(S(F)(F)(F)(F)F)cc12 [Compound 161] | > 20 µM
COC(=O)c1ccccc1NC(=O)c1ccc(-n2ccnc2)nn1 [Compound 162] | 0.956 µM
CCN(CC)CC(C)(C)NC(=O)c1cc(F)c(F)cc1NC(=O)c1ccc(-n2ccnc2)nn1 [Compound 163] | 16.6 µM
O=C(Nc1ccc(Br)cc1C(O)(C(F)(F)F)C(F)(F)F)c1ccc(-n2ccnc2)nn1 [Compound 164] | > 20 µM
N#Cc1ccc(C(=O)O)c(NC(=O)c2ccc(-n3ccnc3)nn2)c1 [Compound 165] | 4.09 µM
COC(=O)c1nc(OC)cnc1NC(=O)c1ccc(-n2ccnc2)nn1 [Compound 166] | 12.1 µM
Cn1ncc2cc(C(=O)O)c(NC(=O)c3ccc(-n4ccnc4)nn3)cc21 [Compound 167] | 14.9 µM
O=c1oc(-c2ccc(-n3ccnc3)nn2)nc2c1COCC2 [Compound 168] | 11.3 µM
O=C(Nc1cc(F)ccc1C(=O)O)c1ccc(-n2ccnc2)nn1 [Compound 169] | 12.6 µM
COc1cc(C(=O)O)c(NC(=O)c2ccc(-n3ccnc3)nn2)cc1F [Compound 170] | 11 µM
CCCc1ccc(NC(=O)c2ccc(-n3ccnc3)nn2)c(C(=O)O)c1 [Compound 171] | > 20 µM
Cc1cc(C(=O)O)c(NC(=O)c2ccc(-n3ccnc3)nn2)cc1F [Compound 172] | 1.01 µM
O=C(Nc1ccc(F)c(F)c1C(=O)O)c1ccc(-n2ccnc2)nn1 [Compound 173] | > 20 µM
O=C(Nc1cc(C2CC2)c(F)cc1C(=O)O)c1ccc(-n2ccnc2)nn1 [Compound 174] | 10 µM
COC(=O)c1cc(F)cc(C)c1NC(=O)c1ccc(-n2ccnc2)nn1 [Compound 175] | ~2.81 µM
COC(=O)c1c(F)c(F)c(F)c(F)c1NC(=O)c1ccc(-n2ccnc2)nn1 [Compound 176] | ~2.48 µM
O=C(Nc1cc(F)c(Br)nc1C(=O)O)c1ccc(-n2ccnc2)nn1 [Compound 177] | > 20 µM

same assay, conditions: primary assay, human THP-1 IRF-inducible reporter; read-out: EC50

SMILES | EC50
O=C(Nc1ccc(Br)cc1C(O)(C(F)(F)F)C(F)(F)F)c1ccc(-n2ccnc2)nn1 [Compound 164] | ~1 µM

From US11701364B2, “Agonists of stimulator of interferon genes sting” (The Scripps Research Institute, priority 2018, dated 2023)
